Experimental data reported in patent US10064909B2, “Compositions and methods for chronic use of a weight-gaining compound” (priority 2015, dated 2018).

Legend:
Assay type in all cases: in vivo
[1] = Laboratory cats modelling CKD safety pilot study
Source text: This study sought to define a capromorelin pharmacokinetic profile in serum of cats with compromised kidney function, to determine if accumulation of capromorelin in serum occurred after 14 days of treatment, and to observe cats for any potential adverse effects of treatment not seen in normal cats. The target population for the capromorelin oral solution included cats with CKD. Therefore, this study used laboratory with significant portions of their kidneys surgically removed and subsequently compromised kidney function indicated by increased serum creatinine and BUN. These cats were developed as a model by Charles River, and are maintained at a colony at their facility in Ballina, Ireland.
Sixteen cats with compromised kidney function were enrolled in the study and randomized to three groups. Animals assigned to Group 1 (n=6) were administered AT-002 once on Day 0 by intravenous catheter at a dose rate of 0.75 mg/kg per cat. Animals assigned to Group 2 (n=6) were administered the AT-002 daily for 14 days by subcutaneous injection at a dose rate of 2 mg/kg. Subcutaneous and intravenous treatment routes were used to assure that sufficient drug exposure occurred. Animals assigned to Group 3 (n=4) served as untreated controls.
Blood samples were collected for capromorelin and/or IGF-1 analysis from animals assigned to Group 1 on Study Day 0. Blood samples were also collected from animals assigned to Groups 2 and 3 on Study Days −1 and 13 (prior to dosing) for hematology and clinical chemistry analysis. Appetite was assessed by food intake and weight gain. Bodyweight measurements were performed on Days −7, −1 (all groups) and on Day 13 (Groups 2 and 3 only). Food intake was monitored from Day −7 to Day 13 inclusive for animals assigned to Groups 2 and 3. Animals were observed daily for clinical signs.

IGF-1 = assay: Capromorelin efficacy in cats for 21 days: serum IGF-1 levels
Method: Thirty-two cats (16 neutered males, 16 females) were divided into 4 treatment groups including 4 animals of each sex per group. The cats were acclimated to the study environment for 10 days prior to study start. All cats were orally dosed with placebo (Group 1) or capromorelin (30 mg/ml oral solution, Formulation 9 as described above) at 1 mg/kg (Group 2), 2 mg/kg (Group 3) or 3 mg/kg (Group 4), for 21 days, with dosing starting on Day 1. Physical examinations were performed on Day −10 and general health observations made daily. Body weights were evaluated on Days −10, −8, −1, 1, 8, 15 and 22 days. Cats were fed about 1 hour after dosing. Commercial dry cat food (300 g) was provided for 5 hours and then removed and the amount of food consumed (g) calculated per cat. On Days 1, 14 and 21, blood samples were collected prior to daily dose administration and at 8 hours post-dose and serum processed for measurement of IGF-1 levels.

[2] = Safety and effectiveness of daily capromorelin in cats with CKD for 90 days (field study, Example 9)
Method: This study was to confirm the safety and effectiveness of AT-002 (capromorelin) in cats under field conditions using a dose of 2 mg/kg administered once daily for 90 days. The study tested the hypotheses that AT-002 will maintain or increase bodyweight, improve body condition score (BCS), improve muscle condition score (MCS), improve appetite and/or improve quality of life (QoL) in cats. This was a double-masked, randomized, placebo-controlled, multi-site, proof of concept field study.
This study enrolled cats diagnosed with chronic kidney disease (CKD) and a minimum 6-month history of losing weight. The enrollment target was for a minimum of 15 evaluable cases in the AT-002 group and 15 evaluable cases in the Control Product (CP; placebo) group. The Investigator and all study personnel were masked to treatment code (A or B) and treatment group (AT-002 or CP). The Dispenser and Owner remained blinded to treatment group (AT-002 or CP).
Cats were treated with a dosage of 2 mg/kg body weight of AT-002 (AT-002) or a placebo (CP) formulation at the same dose volume as the AT-002 once daily for 90±3 days. Day 0 was the first day of dosing. Cats were evaluated on Day 0, Day 14±1, Day 30±2, Day 60±3 and Day 90±3. The primary effectiveness variable was change in bodyweight from Day 0 through Day 90±3. Secondary effectiveness variables included BCS, MCS, owner appetite assessments and owner QoL assessments.
After enrollment, each case was randomly assigned to AT-002 or CP in a 1:1 ratio. The enrollment target was at least 30 evaluable cases (15 AT-002 and 15 CP) per the study randomization schedule across all sites.
Cats included in the study were spayed/neutered cats of any age and breed with a documented historical decrease in bodyweight over the previous 6 months, and a diagnosis of chronic kidney disease (IRIS stages II, III or IV). Cats on medications for certain stable, chronic conditions were allowed. Excluded from the study were cats in crisis or moribund, cats with documented and uncontrolled hyperthyroidism or inflammatory bowel disease, cats in which food intake is contraindicated (i.e. suspected foreign body, gastrointestinal surgery), cats with dental disease severe enough to impair food intake, cats with diabetes, and cats currently receiving prohibited medications.
The Owner maintained the feeding regime the cat was on at study enrollment. No special foods and no special feeding schedule were required. Water was available ad libitum. The cat's diet was monitored and a “Diet History” completed when the Investigator interviewed the Owner at screening/qualification (Day 0), Day 30±2, Day 60±3 and Day 90±3 or at the last study visit (i.e. early removal).
Bodyweight was measured in pounds to the nearest tenth decimal place as part of the physical examination at screening/qualification/Day 0, Day 14±1, Day 30±2, Day 60±3 and Day 90±3 and at the time of any unscheduled visit or early removal from the study. […]

[3] = Two-week oral toxicity study in cats
Method: This study determined the safety of capromorelin when administered orally to cats. Groups of 3 male and 3 female (n=6/group) mixed breed cats were given capromorelin as an oral capsule once daily at doses of 9, 15, 30 and 60 mg/kg for 14 consecutive days. A similar group was given microcrystalline cellulose as a placebo control. All animals were observed daily for clinical signs and assessed for food consumption, with bodyweights recorded 7 days before dosing and again at euthanasia. Other measurements included periodic clinical pathology evaluations of hematology, serum chemistry and urinalysis. After the dosing period, cats were euthanized and necropsied.

CN1N=C2CCN(C(=O)[C@@H](COCc3ccccc3)NC(=O)C(C)(C)N)C[C@@]2(Cc2ccccc2)C1=O.O=C(O)C(O)C(O)C(=O)O [capromorelin, N-[(2R)-1-[(3aR)-2-methyl-3-oxo-3a-(phenylmethyl)-6,7-dihydro-4H-pyrazolo[4,3-c]pyridin-5-yl]-1-oxo-3-(phenylmethoxy)propan-2-yl]-2-amino-2-methylpropanamide L-tartrate]
bodyweight ([1]; Group 2, 2 mg/kg/day subcutaneous, Day -7 to Day 13): lost bodyweight | appetite stimulation (food intake, bodyweight) ([1]; cats with compromised kidney function, 2 mg/kg subcutaneous daily 14 days): unable to stimulate appetite | drug accumulation (pharmacokinetic profiles) ([1]; cats with compromised kidney function, IV 0.75 mg/kg once or SC 2 mg/kg daily 14 days): no evidence of drug accumulation | group mean serum IGF-1 increase from 0 to 8 hours post-dose (IGF-1; 1 mg/kg (Group 2), Day 1): 46.69% | group mean serum IGF-1 increase from 0 to 8 hours post-dose (IGF-1; 1 mg/kg (Group 2), Day 14): 17.27% | group mean serum IGF-1 increase from 0 to 8 hours post-dose (IGF-1; 1 mg/kg (Group 2), Day 21): 9.81% | group mean serum IGF-1 increase from 0 to 8 hours post-dose (IGF-1; 2 mg/kg (Group 3), Day 1): 29.38% | group mean serum IGF-1 increase from 0 to 8 hours post-dose (IGF-1; 2 mg/kg (Group 3), Day 14): 9.00% | group mean serum IGF-1 increase from 0 to 8 hours post-dose (IGF-1; 2 mg/kg (Group 3), Day 21): 2.68% | group mean serum IGF-1 increase from 0 to 8 hours post-dose (IGF-1; 3 mg/kg (Group 4), Day 1): 36.77% | group mean serum IGF-1 increase from 0 to 8 hours post-dose (IGF-1; 3 mg/kg (Group 4), Day 14): 18.56% | group mean serum IGF-1 increase from 0 to 8 hours post-dose (IGF-1; 3 mg/kg (Group 4), Day 21): 5.17% | adverse events with evidence for a potential relationship to treatment ([2]; 2 mg/kg once daily, 90 days): increased salivation and potentially vomiting | tolerability ([2]; 2 mg/kg once daily, 90 days): well-tolerated | body condition score, muscle condition score, owner appetite assessment and quality of life parameters ([2]; 2 mg/kg once daily, vs placebo): no meaningful statistical differences | bodyweight during the treatment period ([2]; 2 mg/kg oral once daily, 90 days): gained weight | mean descriptive (monthly) quality of life score ([2]; 2 mg/kg, Day 0 to Day 90): remained the same | NOAEL at 14 days ([3]; both sexes, mixed breed, cat, in vivo, cats, oral capsule once daily, 14 days, read-out: no-observed-adverse-effect-level (NOAEL)): 15 mg/kg/day | 30 mg/kg dose level relative to proposed clinically effective dose ([3]; cats): 15 times | clinical pathology changes ([3]; cats, 15 to 60 mg/kg dosing groups, sporadic): increases in serum and urine glucose | clinical signs related to capromorelin ([3]; cats, 30 and 60 mg/kg treatment groups): emesis, sporadic salivation, and lethargy/depression | tissue findings at necropsy (gross and microscopic) ([3]; cats, 14 days): not associated with any abnormal tissue findings | tolerability ([3]; cats, oral capsule 9, 15, 30 and 60 mg/kg, 14 days): well tolerated | mean absolute and relative liver weights ([3]; females 30 and 60 mg/kg, absolute liver weights in males at all dosages): increased
